Patent US10568892B2, “Cycloartane tetracyclic triterpenoid compound, preparation method therefor and use thereof” (Hefei Cosource Pharmaceuticals Inc., priority 2016, dated 2020)

Columns and labels:
[1] = Single-dose toxicity (MTD) in KM mice; assay type: in vivo; details: in vivo, po; KM mouse; single intragastrical administration; read-out: Maximum tolerance dose (MTD)
Description: The results of the experimental study on the toxicity of Compound 369 administrated through a single intravenous or intragastrical administration in SD rats and KM mice are shown in Table 9.

[2] = Pharmacokinetics in SD rats; assay type: in vivo, rat; details: rat, in vivo
Experimental: Method: twelve SD male rats were divided into four groups: 2 mg/kg of Compound 369 or cyclovirobuxine D was single dose through the intravenous injection or intragastrical administration, respectively. In the intravenous and intragastrical groups, blood samples (about 0.3 Ml) were collected from the posterior orbital venous plexus pro-dose and 0.25 h, 0.5 h, 1 h, 2 h, 4 h, 6 h, 8 h, and 12 h post-dose. The concentrations of Compound 369 and cyclovirobuxine D in plasma samples were determined by LC-MS/MS, and the pharmacokinetic parameters were calculated by DAS.3.0 software.

guinea pig heart = assay: Atrial fibrillation induced by high- and low-potassium Langendorff perfusion of the guinea pig heart; details: for Incidence (%) of atrial fibrillation / Number of animals developing atrial fibrillation: within 60 min of low-potassium perfusion
Description: Method: a total of 24 guinea pigs were divided into 4 groups according to body weight, and were sacrificed. The heart was quickly taken out, and the blood was squeezed in the ice bath perfusion solution. The heart was quickly transferred in the Langendorff perfusion system, and the perfusion at a constant rate was started by turning on the oxygen-saturated perfusate. One end of the electrode was placed at the cardiac apex, and one end was placed at the right atrium (the position of the atrial appendage). The electrocardiogram was recorded on the computer.
After the heart was stabilized, 10 min after the perfusion of high-K perfusate, blank vehicle, 0.1 μM, 1 μM, and 10 μM of Compound 369, 1 μM Amiodarone and Cyclovirobuxine D were simultaneously administrated and the high K perfusion was continued for 20 min, respectively. Then, the high K perfusion was removed to administrate the low-K perfusate, and the electrocardiogram was obtained at the same time to record whether there was atrial fibrillation within 60 min of low-potassium perfusion.

SD rat = assay: Rat model of heart failure induced by adriamycin; assay type: in vivo
Experimental: 2 mg/kg of adriamycin was injected through tail vein to a SD rat for modeling, once a week for 6 weeks. After the modeling was completed, intragastrical administration of Compound 369 at low (3 mg/kg) and high (9 mg/kg) doses was carried out daily for 4 weeks. In the negative control group, the same volume of normal saline was injected through the tail vein once a week for 6 weeks, thereafter the same volume of vehicle was intragastrically administrated daily for 4 weeks. After the end of the administration, the blood pressure was measured by the carotid artery intubation. The left ventricular end diastolic pressure (LVEDP), left ventricular systolic pressure (LVSP), maximal rate of left ventricular systolic pressure (+dp/dt max), and maximal rate of left ventricular diastolic pressure (−dp/dt max) were recorded, and the average values thereof were calculated.
After the hemodynamic indexes were measured, the chest was opened and the heart and lung were quickly taken out. They were immediately placed in the normal saline at 4° C. to wash down the remaining blood. The fats, blood vessels and atrial tissues on the heart were discarded. The heart was sucked dry by the filter paper, and accurately weighed using the electronic balance to record the heart weight. The ratio of heart weight to body weight (HW/BW), i.e., the heart mass index (HMI), was calculated.

[3] = High dose 9 mg/kg intragastrical daily for 4 weeks
[4] = Low dose 3 mg/kg intragastrical daily for 4 weeks

CN[C@H]1CC[C@]23C[C@]24CC[C@]2(C)C(C(C)=O)=CC[C@@]2(C)[C@@H]4CC[C@H]3C1(C)C [Compound 369, (3β,5α)-4,4,14-trimethyl-3-(methylamino)-9,19-cyclopregnan-16-en-20-one] showed an MTD [1] of 1000 mg/kg, an F ([2]; male, SD, 2 mg/kg) of 35% and an AUC(0-t) ([2]; male, SD, iv, 2 mg/kg) of 249 ng·h/mL. For the same molecule, the Cmax ([2]; male, SD, iv, 2 mg/kg) was 103 ng/mL, the Tmax ([2]; male, SD, iv, 2 mg/kg) was 0.25 h and the half-life ([2]; male, SD, iv, 2 mg/kg) was 4.1 h. The AUC(0-t) ([2]; male, SD, po, 2 mg/kg) was 84.6 ng·h/mL, the Cmax ([2]; male, SD, po, 2 mg/kg) was 11.4 ng/mL and the Tmax ([2]; male, SD, po, 2 mg/kg) was 5 h. For the same molecule, the half-life ([2]; male, SD, po, 2 mg/kg) was 3.5 h, the “Exposures in plasma (AUC and Cmax values) vs cyclovirobuxine D (in words)” value [2] was “slightly lower than that of cyclovirobuxine D” and the “Half-life (T1/2) vs cyclovirobuxine D (in words)” value [2] was “significantly shorter than that of cyclovirobuxine D”. The “Number of animals developing atrial fibrillation compared to the vehicle group (in words)” value (guinea pig heart; 0.1 μM to 10 μM, dose-dependent) was “significantly decreased”, the “Incidence (%) of atrial fibrillation” value (guinea pig heart; 0.1 μM) was 80% and the “Number of animals developing atrial fibrillation” value (guinea pig heart; 0.1 μM) was 4. For the same molecule, the “Incidence of atrial fibrillation for ex vivo heart vs cyclovirobuxine D (in words)” value (guinea pig heart; 1 μM) was “significantly lower”, the “Incidence (%) of atrial fibrillation” value (guinea pig heart; 1 μM) was 33% and the “Number of animals developing atrial fibrillation” value (guinea pig heart; 1 μM) was 2. For the same molecule, the “Incidence (%) of atrial fibrillation” value (guinea pig heart; 10 μM) was 0%, the “Number of animals developing atrial fibrillation” value (guinea pig heart; 10 μM) was 0 and the “Therapeutic effect on heart failure induced by adriamycin (in words)” value (SD rat; 3 and 9 mg/kg intragastrical daily for 4 weeks) was “a certain therapeutic effect”. The ADBP (SD rat; [3]) was 47.0 ± 17.1 mmHg, the ASBP (SD rat; [3]) was 84.9 ± 13.3 mmHg and the BW (SD rat; [3]) was 380.3 ± 24.8 g. It also gave an HW (SD rat; [3]) of 1185.0 ± 135.3 mg, an HW/BW (SD rat; [3]) of 3.11 mg/g and an LVEDP (SD rat; [3]) of −14.2 ± 8.8 mmHg. The LVSP (SD rat; [3]) was 97.3 ± 8.9 mmHg, the dp/dtmax (SD rat; [3]) was 2402.3 ± 427.6 mmHg/s and the “−dp/dt max” value (SD rat; [3]) was −2098.7 ± 345.9 mmHg/s. It also gave an ADBP (SD rat; [4]) of 40.4 ± 15.3 mmHg, an ASBP (SD rat; [4]) of 80.8 ± 17.3 mmHg and a BW (SD rat; [4]) of 308.5 ± 34.65 g. The HW (SD rat; [4]) was 1007.4 ± 145.3 mg, the HW/BW (SD rat; [4]) was 3.27 mg/g and the LVEDP (SD rat; [4]) was −12.7 ± 10.0 mmHg. The LVSP (SD rat; [4]) was 96.5 ± 9.1 mmHg, the dp/dtmax (SD rat; [4]) was 2317.7 ± 715.4 mmHg/s and the “−dp/dt max” value (SD rat; [4]) was −2013.5 ± 405.4 mmHg/s.
